Each molecule was assayed on RSV Long strain (assay: Viral cytopathic effect (CPE) assay, RSV Long strain). Settings: cell viability after 6 days (Cell Counting kit-8).
Format: cell-based, Respiratory Syncytial Virus
How it was run: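 Cells in DMEM with 10% FBS infected next day with RSV Long (A subtype) at a dose giving ~80–90% CPE after 6 days, alongside half-log compound dilutions. Viability at day 6 by CCK-8, absorbance 450 nm referenced to 630 nm; EC50 is concentration giving 50% of maximal protection.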
`N=C(N)NCCn1c(CN2C(=O)C3(CC3)c3ccncc32)cc2cc(Cl)ccc21` [Example 28] showed an EC50 of 0.064 µM.

Same assay, conditions: human respiratory syncytial virus, 144 h, cell viability after 6 days (Cell Counting kit-8)
`O=C1N(Cc2cc3cc(Cl)ccc3n2CCN2CCNCC2)c2cnccc2C12CC2` [Example 24-1, 1′-({5-Chloro-1-[2-(piperazin-1-yl)ethyl]-1H-indol-2-yl}methyl)spiro[cyclopropane-1,3′-pyrrolo[2,3-c]pyridin]-2′(1′H)-one] gave an EC50 of 0.068 µM. Molecule `O=C1N(Cc2cc3cc(Cl)ccc3n2CCCS(=O)(=O)N2CCNCC2)c2cnccc2C12CC2` [Example 24-2, 1′-({5-Chloro-1-[3-(piperazin-1-ylsulfonyl)propyl]-1H-indol-2-yl}methyl)spiro[cyclopropane-1,3′-pyrrolo[2,3-c]pyridin]-2′(1′H)-one] has an EC50 of 0.015 µM. Molecule `O=C1N(Cc2cc3cc(Cl)ccc3n2CCCS(=O)(=O)N2C[C@H]3C[C@@H]2CN3)c2cnccc2C12CC2` [Example 24-3, 1′-[(5-Chloro-1-{3-[(1R,4R)-2,5-diazabicyclo[2.2.1]hept-2-ylsulfonyl]propyl}-1H-indol-2-yl)methyl]spiro[cyclopropane-1,3′-pyrrolo[2,3-c]pyridin]-2′(1′H)-one] has an EC50 of 0.019 µM. In the case of `O=C1CNCCN1CCCn1c(CN2C(=O)C3(CC3)c3ccncc32)cc2cc(Cl)ccc21` [Example 24-4, 1′-({5-Chloro-1-[3-(2-oxopiperazin-1-yl)propyl]-1H-indol-2-yl}methyl)spiro[cyclopropane-1,3′-pyrrolo[2,3-c]pyridin]-2′(1′H)-one], the EC50 is reported as 0.03 µM. In the case of `NCCn1c(CN2C(=O)C3(CC3)c3ccncc32)cc2cc(Cl)ccc21` [Example 24-5, 1′-{[1-(2-Aminoethyl)-5-chloro-1H-indol-2-yl]methyl}spiro[cyclopropane-1,3′-pyrrolo[2,3-c]pyridin]-2′(1′H)-one], the EC50 is reported as 0.064 µM. `CNS(=O)(=O)CCCn1c(CN2C(=O)C3(CC3)c3ccncc32)cc2cc(Cl)cnc21` [Example 25-1, 3-{5-Chloro-2-[(2′-oxospiro[cyclopropane-1,3′-pyrrolo[2,3-c]pyridin]-1′(2′H)-yl)methyl]-1H-pyrrolo[2,3-b]pyridin-1-yl}-N-methylpropane-1-sulfonamide] gave an EC50 of 0.057 µM. In the case of `CNS(=O)(=O)CCCn1c(CN2C(=O)C3(CC3)c3ccncc32)cc2cc(Cl)ccc21` [Example 25-2, 3-{5-Chloro-2-[(2′-oxospiro[cyclopropane-1,3′-pyrrolo[2,3-c]pyridin]-1′(2′H)-yl)methyl]-1H-indol-1-yl}-N-methylpropane-1-sulfonamide], the EC50 is reported as 0.011 µM. In the case of `NS(=O)(=O)CCCn1c(CN2C(=O)C3(CC3)c3ccncc32)cc2cc(Cl)cnc21` [Example 25-3, 3-{5-Chloro-2-[(2′-oxospiro[cyclopropane-1,3′-pyrrolo[2,3-c]pyridin]-1′(2′H)-yl)methyl]-1H-pyrrolo[2,3-b]pyridin-1-yl}propane-1-sulfonamide], the EC50 is reported as 0.041 µM. Molecule `CC(=O)N1CCN(CCn2c(CN3C(=O)C4(CC4)c4ccncc43)cc3cc(Cl)ccc32)CC1` [Example 26-1, 1′-({1-[2-(4-Acetylpiperazin-1-yl)ethyl]-5-chloro-1H-indol-2-yl}methyl)spiro[cyclopropane-1,3′-pyrrolo[2,3-c]pyridin]-2′(1′H)-one] has an EC50 of 0.025 µM. `CC(=O)NS(=O)(=O)CCCn1c(CN2C(=O)C3(CC3)c3ccncc32)cc2cc(Cl)cnc21` [Example 26-2, N-[(3-{5-Chloro-2-[(2′-oxospiro[cyclopropane-1,3′-pyrrolo[2,3-c]pyridin]-1′(2′H)-yl)methyl]-1H-pyrrolo[2,3-b]pyridin-1-yl}propyl)sulfonyl]acetamide] showed an EC50 of 1.92 µM. In the case of `CC(=O)NCCn1c(CN2C(=O)C3(CC3)c3ccncc32)cc2cc(Cl)ccc21` [Example 26-3, N-(2-{5-Chloro-2-[(2′-oxospiro[cyclopropane-1,3′-pyrrolo[2,3-c]pyridin]-1′(2′H)-yl)methyl]-1H-indol-1-yl}ethyl)acetamide], the EC50 is reported as 0.025 µM. Molecule `CS(=O)(=O)N1CCN(CCn2c(CN3C(=O)C4(CC4)c4ccncc43)cc3cc(Cl)ccc32)CC1` [Example 27-1, 1′-[(5-Chloro-1-{2-[4-(methylsulfonyl)piperazin-1-yl]ethyl}-1H-indol-2-yl)methyl]spiro[cyclopropane-1,3′-pyrrolo[2,3-c]pyridin]-2′(1′H)-one] has an EC50 of 0.006 µM. In the case of `CS(=O)(=O)NCCn1c(CN2C(=O)C3(CC3)c3ccncc32)cc2cc(Cl)ccc21` [Example 27-2, N-(2-{5-Chloro-2-[(2′-oxospiro[cyclopropane-1,3′-pyrrolo[2,3-c]pyridin]-1′(2′H)-yl)methyl]-1H-indol-1-yl}ethyl)methanesulfonamide], the EC50 is reported as 0.0115 µM. Work on `CS(=O)(=O)NCCCn1c(CN2C(=O)C3(CC3)c3ccncc32)cc2cc(Cl)ccc21` [Example 27-3, N-(3-{5-Chloro-2-[(2′-oxospiro[cyclopropane-1,3′-pyrrolo[2,3-c]pyridin]-1′(2′H)-yl)methyl]-1H-indol-1-yl}propyl)methanesulfonamide] yielded an EC50 of 0.499 µM. `O=C1N(Cc2cc3cc(Cl)ccc3n2CCCNCCO)c2cnccc2C12CC2` [Example 29, 1′-[(5-Chloro-1-{3-[(2-hydroxyethyl)amino]propyl}-1H-indol-2-yl)methyl]spiro[cyclopropane-1,3′-pyrrolo[2,3-c]pyridin]-2′(1′H)-one] was tested, and the EC50 was 0.244 µM. With `COC(=O)NCCCn1c(CN2C(=O)C3(CC3)c3ccncc32)cc2cc(Cl)ccc21` [Example 30, Methyl(3-{5-chloro-2-[(2′-oxospiro[cyclopropane-1,3′-pyrrolo[2,3-c]pyridin]-1′(2′H)-yl)methyl]-1H-indol-1-yl}propyl)carbamate] the EC50 was 0.02 µM. Work on `O=C(NCC(F)(F)F)OCCCn1c(CN2C(=O)C3(CC3)c3ccncc32)cc2cc(Cl)ccc21` [Example 31, 3-{5-Chloro-2-[(2′-oxospiro[cyclopropane-1,3′-pyrrolo[2,3-c]pyridin]-1′(2′H)-yl)methyl]-1H-indol-1-yl}propyl(2,2,2-trifluoroethyl)carbamate] yielded an EC50 of 0.052 µM. Work on `CCS(=O)(=O)CCc1c(CN2C(=O)C3(CC3)c3cccnc32)[nH]c2cc(Cl)ccc12` [Example 32-1, 1′-({6-Chloro-3-[2-(ethylsulfonyl)ethyl]-1H-indol-2-yl}methyl)spiro[cyclopropane-1,3′-pyrrolo[2,3-b]pyridin]-2′(1′H)-one] yielded an EC50 of 0.009 µM. `CS(=O)(=O)CCc1c(CN2C(=O)C3(CC3)c3ccncc32)[nH]c2cc(Cl)ccc12` [Example 32-2, 1′-({6-Chloro-3-[2-(methylsulfonyl)ethyl]-1H-indol-2-yl}methyl)spiro[cyclopropane-1,3′-pyrrolo[2,3-c]pyridin]-2′(1′H)-one] showed an EC50 of 0.005 µM. With `CS(=O)(=O)CCCc1c(CN2C(=O)C3(CC3)c3ccncc32)[nH]c2cc(Cl)ccc12` [Example 33, 1′-({6-Chloro-3-[3-(methylsulfonyl)propyl]-1H-indol-2-yl}methyl)spiro[cyclopropane-1,3′-pyrrolo[2,3-c]pyridin]-2′(1′H)-one] the EC50 was 0.006 µM. `CS(=O)(=O)CCn1c(CN2C(=O)C3(CC3)c3c(F)cccc32)nc2cc(Cl)ccc21` [Example 34-2, 1′-({5-Chloro-1-[2-(methylsulfonyl)ethyl]-1H-benzimidazol-2-yl}methyl)-4′-fluorospiro[cyclopropane-1,3′-indol]-2′(1′H)-one] gave an EC50 of 0.02 µM. For `CS(=O)(=O)CCn1c(CN2C(=O)C3(CC3)c3c(Cl)cccc32)nc2cc(Cl)ccc21` [Example 34-3, 4′-Chloro-1′-({5-chloro-1-[2-(methylsulfonyl)ethyl]-1H-benzimidazol-2-yl}methyl)spiro[cyclopropane-1,3′-indol]-2′(1′H)-one], the EC50 was 0.066 µM. `CS(=O)(=O)CCn1c(CN2C(=O)C3(CC3)c3c(Br)cccc32)nc2cc(Cl)ccc21` [Example 34-4, 4′-Bromo-1′-({5-chloro-1-[2-(methylsulfonyl)ethyl]-1H-benzimidazol-2-yl}methyl)spiro[cyclopropane-1,3′-indol]-2′(1′H)-one] was tested, and the EC50 was 0.205 µM. For `CCS(=O)(=O)CCn1c(CN2C(=O)C3(CC3)c3ccncc32)nc2cc(Cl)ccc21` [Example 34-5, 1′-({5-Chloro-1-[2-(ethylsulfonyl)ethyl]-1H-benzimidazol-2-yl}methyl)spiro[cyclopropane-1,3′-pyrrolo[2,3-c]pyridin]-2′(1′H)-one], the EC50 was 0.013 µM. `O=C1N(Cc2nc3cc(Cl)ccc3n2CCC2CS(=O)(=O)C2)c2cnccc2C12CC2` [Example 35, 1′-({5-Chloro-1-[2-(1,1-dioxidothietan-3-yl)ethyl]-1H-benzimidazol-2-yl}methyl)spiro[cyclopropane-1,3′-pyrrolo[2,3-c]pyridin]-2′(1′H)-one] was tested, and the EC50 was 0.0011 µM. `CS(=O)(=O)CCCn1c(CN2C(=O)C3(CC3)c3ccncc32)nc2cc(Cl)ccc21` [Example 36-1, 1′-({5-Chloro-1-[3-(methylsulfonyl)propyl]-1H-benzimidazol-2-yl}methyl)spiro[cyclopropane-1,3′-pyrrolo[2,3-c]pyridin]-2′(1′H)-one] showed an EC50 of 0.002 µM. `O=C1N(Cc2nc3cc(Cl)ccc3n2CCS(=O)(=O)C2CC2)c2cnccc2C12CC2` [Example 36-2, 1′-({5-Chloro-1-[2-(cyclopropylsulfonyl)ethyl]-1H-benzimidazol-2-yl}methyl)spiro[cyclopropane-1,3′-pyrrolo[2,3-c]pyridin]-2′(1′H)-one] showed an EC50 of 0.008 µM. `CS(=O)(=O)CCn1c(CN2C(=O)C3(CC3)c3ccncc32)nc2cc(Cl)cc(Cl)c21` [Example 37-2, 1′-({5,7-Dichloro-1-[2-(methylsulfonyl)ethyl]-1H-benzimidazol-2-yl}methyl)spiro[cyclopropane-1,3′-pyrrolo[2,3-c]pyridin]-2′(1′H)-one] showed an EC50 of 0.0168 µM. In the case of `O=C1N(Cc2nc3cc(Cl)ccc3n2CC2COC2)c2cnccc2C12CC2` [Example 38-1, 1′-{[5-Chloro-1-(oxetan-3-ylmethyl)-1H-benzimidazol-2-yl]methyl}spiro[cyclopropane-1,3′-pyrrolo[2,3-c]pyridin]-2′(1′H)-one], the EC50 is reported as 0.003 µM. `O=C1N(Cc2nc3cc(Cl)ccc3n2CCC2COC2)c2cnccc2C12CC2` [Example 38-2, 1′-({5-Chloro-1-[2-(oxetan-3-yl)ethyl]-1H-benzimidazol-2-yl}methyl)spiro[cyclopropane-1,3′-pyrrolo[2,3-c]pyridin]-2′(1′H)-one] gave an EC50 of 0.003 µM.
